In this series the test system is over active bladder. Particulars: oral, 5 mg pills three times per day.

Procedure: Their doctor prescribes an anti-cholinergic agent, oxybutynin chloride, taken orally three times per day in 5 mg pills.
Alternatively, their doctor prescribes an oxybutynin urethral suppository of the invention. Before leaving home, they open the individually wrapped suppository, grasping it by the handle; they insert the meltable portion, containing up to 5 mg of oxybutynin chloride, into their urethra. […] If necessary, the person can remove the remaining portions of the suppository and insert a new suppository to prevent uncontrolled voiding episodes.

In the case of `CCN(CC)CC#CCOC(=O)C(O)(c1ccccc1)C1CCCCC1` (centres unmarked) [oxybutynin chloride], the “effect on uncontrolled voiding episodes” value (patient one) was “eliminates the uncontrolled voiding episodes”. Moreover, for the setting “patient two”, the side effects entry is “severe dry mouth and dizziness”.

(Values after patent US7267670B2, “Reinforced urethral suppository” (priority 2001, dated 2007).)
